Laboratory results as given in patent US20260217712A1, “SOLID STATE FORMS OF MNK INHIBITORS” (4E Therapeutics, Inc., priority 2023, published 2026).
≈ marks a conversion by molar mass, not a printed value. Entries after “also recorded” stand apart in the source; their conditions may differ. Read-outs that look alike come from different tables or passages of the source.

Columns and labels:
Assay type in all cases: physicochemical
[1] = Thermodynamic solubility in simulated media and buffers; details: for solubility at 24 h: 25 °C, thermodynamic from solid
Procedure: The thermodynamic solubility for Pattern 11 was determined in 3 simulated media and two buffers. […]

[2] = Gravimetric vapor sorption (GVS) and XRPD post-GVS; details: for GVS reversible water uptake 0-90% RH: 25° C.; for Post GVS XRPD form: after double cycle GVS
Procedure: Sorption isotherms were obtained using a SMS DVS Intrinsic moisture sorption analyzer, controlled by DVS Intrinsic Control software. The sample temperature was maintained at 25° C. by the instrument controls. The humidity was controlled by mixing streams of dry and wet nitrogen, with a total flow rate of 200 mL/min. The relative humidity was measured by a calibrated Rotronic probe (dynamic range of 1.0-100% RH), located near the sample. The weight change, (mass relaxation) of the sample as a function of % RH was constantly monitored by a microbalance (accuracy±0.005 mg).
(§1) Typically, 5-30 mg of sample was placed in a tared mesh stainless steel basket under ambient conditions. The sample was loaded and unloaded at 40% RH and 25° C. (typical room conditions). A moisture sorption isotherm was performed as outlined below (2 scans per complete cycle). The standard isotherm was performed at 25° C. at 10% RH intervals over a 0-90% RH range. Typically, a double cycle (4 scans) was carried out. Data analysis was carried out within Microsoft Excel using the DVS Analysis Suite.
Sorption isotherms were obtained using a Hiden IGASorp moisture sorption analyser, controlled by Isochema HISorp software. The sample temperature was maintained at 25° C. by a Grant LT ecocool 150 re-circulating water bath. The humidity was controlled by mixing streams of dry and wet nitrogen, with a total flow rate of 250 ml·min-1. The relative humidity was measured by a calibrated Vaisala RH probe (dynamic range of 0-95% RH), located near the sample. The weight change, (mass relaxation) of the sample as a function of % RH was constantly monitored by the microbalance (accuracy±0.001 mg).
as §1, with “Typically, 20-30” for “Typically, 5-30”, “scans giving 1” for “scans per”, “within the Isochema HISorp 2019 software and exported into” for “within”, “Excel to present accordingly.” for “Excel using the DVS Analysis Suite.”

[3] = Static storage at 40° C./75% RH, XRPD and HPLC post storage
Procedure: Purity analysis was performed on an Agilent HP1100/Infinity II 1260 series system equipped with a diode array detector and using OpenLAB software. The full method details are provided below:
Poorly Crystalline Structure (I) (from Lot A, Free Form Pattern 1, 30 mg) was dissolved in 50 volumes of THF:Water 9:1 at 60° C. in 13 vials, stirring at 500 RPM (small amount of debris present). The solutions were then treated with 1.1 molar equivalents (90/180 μL) of selected counter-ions (Table 7). The resulting solutions were then cooled down to 5° C. at 0.1° C./min and were held at this temperature for 2 days. The suspensions were filtered and dried under suction for 20 min. The gummed sample was left with the cap off to promote crystallization. All solids obtained were initially analyzed by XRPD and stored in glass HPLC vials for subsequent analysis.
Any solids obtained were analyzed by XRPD, ^1H NMR, HPLC, TGA, DSC, XRPD post storage at 40° C./75% RH after 7 days & IC if necessary. Additional microscopy techniques (PLM & HSM) were used to complement the above analysis where appropriate.

[4] = Static storage at 25° C./97% RH, XRPD and HPLC post storage; details: 10 days
[5] = Competitive slurries of Pattern 3 and Pattern 11, XRPD
Procedure: A solid mixture of Structure (I) Pattern 3 (from Lot B, 300 mg) and Pattern 11 (Sample 35-1, 300 mg) was mixed for 3 hours using a turbula mixer.
The solid mixture (30 mg) was suspended in solvent (dried with molecular sieves, 600 μL, 20 vol) and either stirred in the fridge, shaken at RT or 55° C. After 7 days, an aliquot of each suspension was analyzed by XRPD. Samples that were still a mixture of forms were placed back into fridge/shakers for a further 10 days and re-analyzed (results shown in Table 36).
Competitive slurry experiments at 55° C., along with one at 5° C., were repeated using a saturated solution as the solvent mixture to minimize dissolution that may have occurred at temperatures other than room temperature.
A saturated solution of THF/Water (9:1) (5 mL) with Structure (I) (from Lot B) was equilibrated at 55° C. overnight in a shaker. The solution was filtered using 0.45 μm nylon filter before use.
A solid mixture of Pattern 3 and Pattern 11 (30 mg) was suspended in the saturated solution (600 μL, 20 vol) and either stirred in the fridge (5° C.) or shaken at 55° C. After 1 day, aliquots of the suspensions were analyzed by XRPD. Both samples were placed back into fridge/shaker. After a total of 11 days, the samples were removed from fridge/shaker. Sample 38-2 was filtered before XRPD, Sample 38-1 was pipetted onto the XRPD holder and allowed to dry before analysis (solid passed through filter).

[6] = Drying / standing under ambient conditions, XRPD; details: ambient conditions
Procedure: Structure (I) (Sample 28-2, 30 mg, Poorly Crystalline Pattern 3) was wetted with solvent (300 μL, 10 vol) according to Table 30 and put into a shaker at 50° C. for 6 days. The suspensions were isolated using filter cartridges and positive pressure. A XRPD pattern was collected for each sample. […] This characterization is presented and discussed in Examples detailed herein. (see, e.g., FIG. 75)

[7] = Static storage at 40° C./75% RH, XRPD and HPLC post storage; details: 7 days, listed as 34-1
[8] = Drying / standing under ambient conditions, XRPD; details: listed as 34-1

Cc1cc(Nc2cc(N)ncn2)c(=O)n2c1C(=O)NC21CCC2(CC2)CC1 [Pattern 11]
Solubility FaSSGF ([1]; FaSSGF, 25° C./24 h, listed as 35-1): FaSSGF-0.078 mg/mL
solubility at 24 h ([1]; FaSSIF, fassif, FaSSIF, 25° C./24 h, read-out: Solubility FaSSIF): 1.4 µg/mL (≈ 3.82 µM)
solubility at 24 h ([1]; FeSSIF, fessif, FeSSIF, 25° C./24 h, read-out: Solubility FeSSIF): 4 µg/mL (≈ 10.9 µM)
Solubility pH 2.0 ([1]; pH 2.0 buffer, 25° C./24 h, listed as 35-1): pH 2.0-0.052 mg/mL
solubility at 24 h ([1]; pH 7.4 buffer, pH 7.4, aqueous buffer, pH 7.4 buffer, 25° C./24 h, read-out: Solubility pH 7.4): 1 µg/mL (≈ 2.73 µM)
solubility in simulated fluids and buffers (in words) ([1]; simulated media and buffers): practically insoluble
hygroscopicity (in words) [2]: only slightly hygroscopic
GVS reversible water uptake 0-90% RH [2]: 0.3 wt %
GVS reversible water uptake 0-90% RH ([2]; listed as 35-1): 0.3 wt % reversible water uptake 0-90% RH with a
Post GVS XRPD form [2]: remained Pattern 11
Post GVS XRPD form ([2]; listed as 35-1): Post GVS XRPD: Pattern 11 + peak at 7.7°
hygroscopicity (in words) ([2]; listed as Structure (I) Pattern 11): only slightly hygroscopic
stability to storage at 40° C./75% RH (in words) ([3]; 40° C./75% RH (elevated temperature and humidity)): reasonable stability; also recorded: good stability
XRPD form after storage at 40° C./75% RH, 3 days ([3]; 40° C./75% RH, 3 days): 3 days: No change in form-Pattern 11
Static storage 40° C./75% RH, form ([3]; 40° C./75% RH, 10 days): form and purity was found to stable
Static storage 40° C./75% RH, purity ([3]; 40° C./75% RH, 10 days): Purity: 98.0%
Static storage 40° C./75% RH, form ([3]; 40° C./75% RH, 10 days, listed as 35-1): 10 days: No change in form-Pattern 11
Static storage 25° C./97% RH, form [4]: 10 days: No change in form-Pattern 11
Static storage 25° C./97% RH, purity [4]: Purity: 98.1%
form conversion in competitive slurries (in words) [5]: no conversion of Pattern 11 to Pattern 3
form under ambient conditions (XRPD after ambient overnight) [6]: stable at ambient conditions; also recorded: stable at room temperature
XRPD post storage at 40° C./75% RH [7]: 7 days: Pattern 11 + extra peaks (not
form under ambient conditions (XRPD after ambient overnight) [8]: Pattern 11
